Consider 18 compounds from patent publication US4547507A, “Benzothiopyranopyridinones” (Roussel Uclaf, priority 1982, dated 1985).

As usually defined, the IC50 is the concentration at which inhibition is half-maximal.

Counter-ions that a name gives are not always drawn. A value given as a limit tells only on which side of the number the result lay.

Test [1] deals with rat striatal dopamine receptor (Rattus norvegicus, UniProt P61169). The experiment in a line: Test A: [3H]Spiroperidol displacement from rat striatal dopamine receptor binding sites. Conditions: rat striatal membranes, [3H]spiroperidol 0.19 nM, 37° C., 10 minutes, pH 7.6; read-out: Test A receptor DA IC50. As for the experimental part: Test A--[^3 H Spiroperidol displacement from rat striatal dopamine receptor binding sites
Chain of rat striatal dopamine receptor (P61169 whole entry): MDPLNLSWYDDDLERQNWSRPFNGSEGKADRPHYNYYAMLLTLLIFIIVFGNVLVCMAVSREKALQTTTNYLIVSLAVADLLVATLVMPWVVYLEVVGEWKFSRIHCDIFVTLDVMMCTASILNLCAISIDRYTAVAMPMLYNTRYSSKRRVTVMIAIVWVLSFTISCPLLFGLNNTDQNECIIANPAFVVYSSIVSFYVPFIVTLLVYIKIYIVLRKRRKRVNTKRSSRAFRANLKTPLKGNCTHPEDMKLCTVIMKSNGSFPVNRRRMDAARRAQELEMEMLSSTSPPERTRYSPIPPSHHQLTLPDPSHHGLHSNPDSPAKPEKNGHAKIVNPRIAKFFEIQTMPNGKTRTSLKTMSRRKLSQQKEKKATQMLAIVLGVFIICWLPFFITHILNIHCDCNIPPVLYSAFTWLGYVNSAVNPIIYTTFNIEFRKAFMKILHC
(a) Radioligand--[phenyl-4-(n)-^3 H]Spiroperido (Amersham International, TRK 570, 21 Ci/mmol was used as a 1 μCi/1 μl solution in ethanol and this solution was diluted to 250 μCi in 1 ml of ethanol to produce a stock solution. This stock solution was diluted 3.2/10,000 in assay buffer and 0.1 ml volumes of this were added to 2 ml binding assays =0.19 nM [^3 H]spiroperidol and =[…]
(b) Assay buffer--The assay buffer was a modified 50 mM Tris HCl buffer with a pH of 7.6 containing the following additions: NaCl-120 mM, KCl-5 mM, MgCl2 -1 mM, CaCl2 -2 mM, Pargyline-10 μM and 1-Ascorbic Acid-0.1%
(c) Membrane preparation--The striata were dissected from male CFHB rats and homogenized in 20 volumes of ice cold 0.32M sucrose with a Teflon/glass homogenizer and the homogenate was centrifuged at 1000 g for 10 minutes. The resulting supernatant was recentrifuged at 30,000 g for 30 minutes and the supernatant was discarded and the pellet was resuspended by homogenization in 30 volumes of ice cold assay buffer.
(d) Non-specific binding--Non-specific binding was accounted for by the inclusion of 1 μM(+)butaclamol in blank binding assays which required a stock solution of 20 μM in distilled water.
(e) Displacing compounds--Solutions were prepared at 20x final assay concentration in distilled water.
(f) Binding assay protocol--1.3 ml assay buffer, 0.5 ml membrane suspension, 0.1 ml distilled H2 O or drug solution and 0.1 ml [^3 H]spiroperidol dilution Binding assays were made up in ice with the [^3 H]spiroperidol being added last and incubated at 37° C. for 10 minutes. The bound ligand was separated by filtration through Whatman GF/C filters under vacuum followed by 2×10 ml rinses of ice cold assay buffer. The filters were dried at 80° C. and counted in 5 ml volumes of ECONOFLUOR (NEN) scintillation cocktail. All binding assays, controls, blanks and each of four displacer concentration were run in triplicate. IC50 values (Test A) were obtained graphically from log dose versus percent inhibition of specific binding plots.

The next test addresses rat cortical α1 receptor. The test is described as follows: Test B: [3H]Prazosin displacement from rat cortical α1 receptor binding sites. The settings on record: rat cerebral cortex membranes, [3H]prazosin 0.1 nM, 25° C., 30 minutes, pH 7.5. As for the experimental part: Test B--[^3 H]Pyrazosin displacement from rat cortical α1 receptor binding sites (a) Radioligand--[^3 H]Prazosin (Amersham International, TRK 647, 28 Ci/mmole) was used as a 1 μCi/1 μl solution and this stock solution was diluted 1/18,000 in assay buffer and 0.1 ml volumes of this were added to 2 ml binding assay. =0.1 nM [^3 H]Prazosin and =0.0056 μCi/binding assay (b) Membrane preparation--The cerebral cortices were dissected from male CFHB rats and homogenized in 20 volumes of ice cold 0.32M sucrose using a Teflon/glass homogenizer and the homogenate was centrifuged at 1000 g for 10 minutes. The resulting pellet was discarded and the supernatant was recentrifuged at 30,000 g for 30 minutes. The supernatant was discarded and the pellet was resuspended by homogenization in 50 volumes of 50 mM pH 7.5 Tris HCl buffer (assay buffer). (c) Non-specific binding--Non-specific binding was accounted for by the inclusion of 100 μM 1-noradrenaline in blank binding assays which required a stock solution of 2 mM 1-noradrenaline made up fresh daily in 0.1% 1-ascorbic acid. (d) Displacing compounds--Solutions were prepared at 20x final assay concentration in distilled water. (e) Binding assay protocol--1.3 ml assay buffer, 0.5 ml membrane suspension, 0.1 ml distilled H2 O or drug solution and 0.1 ml [^3 H]pyrazosin dilution Binding assays were made up in ice with the [^3 H]pyrazosin being added last and incubated at 25° C. for 30 minutes. The bound ligand was separated by filtration through Whatman GF/C glass fibre filters under vacuum followed by 2×10 ml rinses of ice cold assay buffer. The filters were dried at 80° C. and counted in 5 ml volumes of ECONOFLUOR (NEN) scintillation cocktail. All binding assays, controls, blanks and each of four displacer concentrations were run in triplicate. IC50 values (Test B) were obtained graphically from log dose versus percent inhibition of specific binding plots.

For the next test, the target named is rat cortical α2 receptor. The test is described as follows: Test C: [3H]Dihydroergocryptine displacement from rat cortical α2 receptor binding sites. The settings on record: for IC50: rat cortical membranes, [3H]dihydroergocryptine 0.45 nM, 25° C., 45 minutes in the dark, approximately 80% of binding is α2. The procedure:
Test C--[^3 H]Dihydroergocryptine displacement from rat cortical α2 *receptor binding sites
(a) Radioligand--[9,10(n)-^3 H]9,10-Dihydroergocryptine (Amersham International, TRK 555, 17.5 Ci/mmole) was used as a 1 μCi/1 μl solution and this stock solution was diluted 1/6250 in assay buffer and 0.1 ml volumes of this were added to 2 ml binding assays. =0.45 nM and =0.016 μCi/binding assay
*In cortical membranes, [^3 H]dihydroergocryptine binds to both α1 and α2 receptor binding sites under the conditions of assay described here, approximately 80% of the binding is associated with α2 receptors.
(§1) (b) Membrane preparation--As for Test B
(c) Non-specific binding--As for Test B
(d) Displacing compounds--As for Test B
(e) Assay protocol--As for Test B with the exception that the binding assays were incubated at 25° C. for 45 minutes in the dark.

Test [2] has as its target rat cortical muscarinic receptor. The test is described as follows: Test D: [3H]Quinuclidinyl benzylate displacement from rat cortical muscarinic receptor binding sites. The settings on record: rat cortical membranes, [3H]quinuclidinyl benzylate 0.31 nM, 25° C., 60 minutes; read-out: Test D MUSC IC50. The procedure:
Test D--[^3 H]Quinuclidinyl benzylate displacement from rat cortical muscarinic receptor binding sites
(a) Radioligand--DL-[3-^3 H]Quinuclidinyl benzylate (Amersham International, TRK 506, 12 Ci/mmol) was used as a 1 μCi/1 μl solution and this stock solution was diluted 1/13333 in assay buffer and 0.1 ml volumes of this were added to 2 ml binding assay =0.31 nM and =0.0075 μCi/binding assay
as §1
(c) Non-specific binding--Non-specific binding was accounted for by the inclusion of 100 μM oxotremorine sesquifumarate in blank binding assays and this required a stock solution of 2 mM in distilled H2 O.
(d) Displacement compounds--As for Test B
(e) Assay protocol--As for Test B with the exception that the binding assays were incubated at 25° C. for 60 minutes.

Regarding `O=c1c2c(sc3ccccc13)CCN(CC1=CCCCC1)C2` [Example 29], the IC50 is 170 nM in test [1], 2630 nM at rat cortical α1 receptor, 150 nM at rat cortical α2 receptor and greater than 100000 nM in test [2].
The corresponding values for `Cc1ccc2sc3c(c(=O)c2c1)CNCC3` [Example 2, 1,2,3,4-tetrahydro-8-methyl-10H-(1)benzothiopyrano[3,2-c]pyridin-10-one hydrochloride] are greater than 10000 nM, greater than 10000 nM, 3300 nM and 45700 nM.
In the case of `[3H]C1C(C(=O)NC2(C(C)C)OC3(O)C4CCCN4C(=O)C(CC(C)C)N3C2=O)CN(C)C2Cc3c[nH]c4cccc(c34)C12[3H]` (stereo not drawn) [[^3 H]dihydroergocryptine, [9,10(n)-^3 H]9,10-Dihydroergocryptine, reference compound], the “share of the radioligand binding associated with α2 receptors” value in the test on rat cortical α2 receptor (cortical membranes, under the conditions of assay) is reported as “approximately 80%”.
For `CCCCCCN1CCc2sc3ccccc3c(=O)c2C1` [Example 18, 2-n-hexyl-1,2,3,4-tetrahydro-10H-(1)-benzothiopyrano[3,2-c]pyridin-10-one hydrochloride], the IC50 in test [1] was 130 nM; on rat cortical α1 receptor, 400 nM; at rat cortical α2 receptor, 80 nM; in test [2], 15800 nM.
As to `CCCCN1CCc2sc3ccccc3c(=O)c2C1` [Example 14, 2-n-butyl-1,2,3,4-tetrahydro-10H-(1)-benzothiopyrano[3,2-c]pyridin-10-one hydrochloride], the IC50 in test [1] was found to be 80 nM; on rat cortical α1 receptor, 890 nM; at rat cortical α2 receptor, 110 nM; in test [2], 75800 nM.
Consider `O=c1c2c(sc3ccc(Cl)cc13)CCNC2` [Example 7, 8-chloro-1,2,3,4-tetrahydro-10H-(1)-benzothiopyrano[3,2-c]pyridin-10-one hydrochloride], for which the IC50 was 5100 nM in test [1], greater than 10000 nM on rat cortical α1 receptor, 2200 nM on rat cortical α2 receptor and 85100 nM in test [2].
The corresponding values for `O=c1c2c(sc3ccccc13)CCN(CC1CCCCCC1)C2` [Example 28] are 150 nM, 2820 nM, 320 nM and greater than 100000 nM.
The corresponding values for `CN1CCc2sc3ccccc3c(=O)c2C1` [Example 12, 1,2,3,4-tetrahydro-2-methyl-10H-(1)-benzothiopyrano[3,2-c]pyridin-10-one hydrochloride] are 2800 nM, 3100 nM, 930 nM and 32400 nM.
On the same counts, the results for `O=c1c2c(sc3ccccc13)CCN(Cc1ccccc1)C2` [Example 6, 2-benzyl-1,2,3,4-tetrahydro-10H-(1)-benzothiopyrano[3,2-c]pyridin-10-one hydrochloride] are 680 nM, 4000 nM, 500 nM and greater than 100000 nM.
As for `O=c1c2c(sc3ccccc13)CCN(CCc1ccccc1)C2` [Example 32], the IC50 in test [1] was found to be 230 nM; on rat cortical α1 receptor, 170 nM; at rat cortical α2 receptor it was 210 nM; in test [2], 46800 nM.
On the same counts, the results for `O=c1c2c(sc3ccccc13)CCN(CC1CCC1)C2` [Example 26, 2-cyclobutylmethyl-1,2,3,4-tetrahydro-10H-(1)-benzothiopyrano[3,2-c]pyridin-10-one] are 60 nM, 690 nM, 50 nM and 50000 nM.
On the same counts, the results for `O=c1c2c(sc3ccccc13)CCN(CC1CCCC1)C2` [Example 27, 2-cyclopentylmethyl-1,2,3,4-tetrahydro-10H-(1)-benzothiopyrano[3,2-c]pyridin-10-one] are 40 nM, 680 nM, 50 nM and 57500 nM.
As to `O=c1c2c(sc3ccccc13)CCN(CCCn1c(=O)[nH]c3ccccc31)C2` [Example 36], the IC50 in test [1] was found to be 30 nM; on rat cortical α1 receptor, 190 nM; at rat cortical α2 receptor, 150 nM; in test [2], 44700 nM.
On the same counts, the results for `NC(=O)CCN1CCc2sc3ccccc3c(=O)c2C1` [Example 23, 2-(2-carbamoylethyl)-1,2,3,4-tetrahydro-10H-(1)-benzothiopyrano[3,2-c]pyridin-10-one hydrochloride] are 4200 nM, 5900 nM, 3000 nM and greater than 100000 nM.
On the same counts, the results for `O=c1c2c(sc3ccccc13)CCN(C1CCCCC1)C2` [Example 37] are 160 nM, 1590 nM, 600 nM and 11700 nM.
In the case of `O=c1c2c(sc3ccccc13)CCN(CC1CCCCC1)C2` [Example 20, 2-cyclohexylmethyl-1,2,3,4-tetrahydro-10H-(1)-benzothiopyrano[3,2-c]pyridin-10-one hydrochloride], the IC50 in test [1] is 10 nM; on rat cortical α1 receptor, 2700 nM; at rat cortical α2 receptor, 230 nM; in test [2], greater than 100000 nM.
On the same counts, the results for `CC(C)CN1CCc2sc3ccccc3c(=O)c2C1` [Example 19, 1,2,3,4-tetrahydro-2-isobutyl-10H-(1)-benzothiopyrano[3,2-c]pyridin-10-one hydrochloride] are 100 nM, 4600 nM, 150 nM and greater than 100000 nM.
The corresponding values for `O=C(CCCN1CCc2sc3ccccc3c(=O)c2C1)c1ccc(F)cc1` [Example 16, 2-(4-p-fluorophenyl-4-oxobutyl)-1,2,3,4-tetrahydro-10H-(1)-benzothiopyrano-[3,2-c]pyridin-10-one hydrochloride] are 20 nM, 20 nM, 20 nM and greater than 100000 nM.
